# In patent US8221975B2, “Method for detection of microorganism” (Morinaga Milk Industry Co., Ltd., priority 2007, dated 2012):
# Legend:
# Format in all cases: cell-based
# [1] = tested on: Enterobacter sakazakii ATCC 6538P; test: ompA real-time PCR (469 bp) of EMA-treated Enterobacter sakazakii, Ct value
# [2] = tested on: Listeria monocytogenes JCM 2873; test: hlyA-PCR of EMA-treated Listeria (live and injured cells), band intensity of final amplified product on agarose gel; details: for bands of hlyA gene amplified products (electrophoresis, FIG. 1): multi-step treatment (EMA 100 μg/ml-incubation-EMA 25 or 10 μg/ml); for bands estimated as hlyA gene amplified products (electrophoresis, FIG. 1): single-step treatment, live cells and injured cells
# [3] = tested on: Enterobacter sakazakii ATCC 6538P; test: MMS real-time PCR (79 bp) of EMA-treated Enterobacter sakazakii, Ct value
# Procedure: In the case where the real-time PCR is employed, changes in fluorescent intensities are generally noise levels and about zero if the number of amplification cycles is in the range of 1 to 10. Therefore, the intensities are regarded as sample blanks containing no amplification products. The standard deviation (SD) of the changes is calculated, and a value obtained by multiplying the SD value by 10 is defined as a threshold value. The number of PCR cycles in which a value larger than the threshold value is achieved for the first time referred to as “cycle threshold value (Ct value)”. Therefore, the larger the initial amount of a DNA template in a PCR reaction solution, the smaller the Ct value, while the smaller the amount of the template DNA, the larger the Ct value. Even if the amounts of the template DNA are the same, the higher the proportion of the template where a target region of PCR has been cleaved, the larger the Ct value in PCR reactions for the region.
# A Gram-negative bacterium, Enterobacter sakazakii (Enterobacter sakazakii ATCC 6538P; hereinafter, abbreviated as “sakazakii” in some cases), was cultured in brain-heart infusion (BHI) broth at 37° C., and 5 ml of the culture medium in the logarithmic growth phase was centrifuged at 8,000×g for 15 minutes at 4° C., followed by removal of the supernatant. 5 ml of physiological saline was added to the bacterial cells, and the whole was vigorously stirred and diluted 10-fold. Thus, a live cell suspension was prepared. The number of the live cells in the live cell suspension was determined in a standard agar plate medium and found to be 8.38±0.25 log10 cfu/ml.
# The live cell suspension (1 ml) was placed in a 1.5-ml microtube, and the microtube was immersed in boiling water for 2 minutes and immediately cooled with ice water, to thereby prepare a injured cell suspension. The cells in the suspension probably include small numbers of live cells and dead cells but include mainly injured cells. Therefore, the cells are simply referred to as “injured cells”. Note that the method of the present invention is originally intended to detect live cells, and microorganism cells distinguished from live cells may be injured cells or dead cells.
# Ethidium monoazide (EMA) was added to the live cell suspension and injured cell suspension of sakazakii prepared above at a final concentration of 0, 10, 25, or 100 μg/ml, and the suspensions were allowed to stand under shading at 4° C. for 10 minutes. The suspensions were placed on ice and irradiated for 5 minutes with a 500-W visible light (FLOOD PRF: 100 V, 500 W, IWASAKI ELECTRIC CO., LTD., wavelength: 500 to 700 nm) at a distance of 20 cm from the suspensions. Then, the suspensions were centrifuged at 15,000×g for 10 minutes at 4° C., and the supernatants were removed. An equal volume of physiological saline was added thereto, and the suspensions were stirred and centrifuged while cooling at 15,000×g for 10 minutes at 4° C., followed by removal of the supernatants. An equal volume of brain-heart infusion (BHI) broth was added thereto, and the suspensions were incubated at 37° C. for 2 hours.
# In the […] EMA treatment, EMA was not added again to the live cell and injured cell suspensions having an EMA concentration of 0, […] The suspensions were allowed to stand under shading at 4° C. for 10 minutes, placed on ice, and irradiated for 5 minutes with a 500-W visible light at a distance of 20 cm from the suspensions.
# Ethidium monoazide (EMA) was added to the live cell and injured cell suspensions of sakazakii prepared in the section “1.” at a final concentration of 0, 10, 25 or 100 μg/ml, and the suspensions were allowed to stand under shading at 4° C. for 10 minutes, placed on ice, and irradiated for 5 minutes with a 500-W visible light (FLOOD PRF: 100V, 500 W, IWASAKI ELECTRIC CO., LTD., wavelength: 500 to 700 nm) at a distance of 20 cm from the suspensions. […]
# [4] = single-step EMA 10 μg/ml, Injured cell
# [5] = single-step EMA 10 μg/ml, Live cell
# [6] = single-step EMA 25 μg/ml, Injured cell
# [7] = single-step EMA 25 μg/ml, Live cell
# [8] = single-step EMA 100 μg/ml, Injured cell
# [9] = single-step EMA 100 μg/ml, Live cell
# [10] = two-step EMA 10/10 μg/ml, Injured cell
# [11] = two-step EMA 10/10 μg/ml, Live cell
# [12] = two-step EMA 25/10 μg/ml, Injured cell
# [13] = two-step EMA 25/10 μg/ml, Live cell
# [14] = two-step EMA 100/10 μg/ml, Injured cell
# [15] = two-step EMA 100/10 μg/ml, Live cell
smiles,measurement,setting,value
"CC[n+]1c(-c2ccccc2)c2cc(N=[N+]=[N-])ccc2c2ccc(N)cc21 [EMA, ethidium monoazide]","Ct value (mean ± SD, N = 2)",[1]; [4],"36.3, ND^c,d"
same,number of times of positive reaction in two PCR assays (i/2),[1]; [4],(1/2)
same,"Ct value (mean ± SD, N = 2)",[1]; [5],18.8 ± 0.3
same,number of times of positive reaction in two PCR assays (i/2),[1]; [5],(2/2)
same,"Ct value (mean ± SD, N = 2)",[1]; [6],"ND, ND"
same,number of times of positive reaction in two PCR assays (i/2),[1]; [6],(0/2)
same,"Ct value (mean ± SD, N = 2)",[1]; [7],20.9±0.6
same,number of times of positive reaction in two PCR assays (i/2),[1]; [7],(2/2)
same,"Ct value (mean ± SD, N = 2)",[1]; [8],"35.0, ND"
same,number of times of positive reaction in two PCR assays (i/2),[1]; [8],(1/2)
same,"Ct value (mean ± SD, N = 2)",[1]; [9],23.9 ± 0.9
same,number of times of positive reaction in two PCR assays (i/2),[1]; [9],(2/2)
same,"Ct value (mean ± SD, N = 2)",[1]; [10],"ND, ND"
same,number of times of positive reaction in two PCR assays (i/2),[1]; [10],(0/2)
same,"Ct value (mean ± SD, N = 2)",[1]; [11],15.9±0.4
same,number of times of positive reaction in two PCR assays (i/2),[1]; [11],(2/2)
same,"Ct value (mean ± SD, N = 2)",[1]; [12],"ND, ND"
same,number of times of positive reaction in two PCR assays (i/2),[1]; [12],(0/2)
same,"Ct value (mean ± SD, N = 2)",[1]; [13],20.1 ± 1.6
same,number of times of positive reaction in two PCR assays (i/2),[1]; [13],(2/2)
same,"Ct value (mean ± SD, N = 2)",[1]; [14],"36.0, ND"
same,number of times of positive reaction in two PCR assays (i/2),[1]; [14],(1/2)
same,"Ct value (mean ± SD, N = 2)",[1]; [15],23.6 ± 0.4
same,number of times of positive reaction in two PCR assays (i/2),[1]; [15],(2/2)
same,"bands of hlyA gene amplified products (electrophoresis, FIG. 1)",[2]; injured cells,few or no bands were detected
same,"bands of hlyA gene amplified products (electrophoresis, FIG. 1)",[2]; live cells,bands were clearly detected
same,Band Intensity,"[2]; multi-step: EMA 100 μg/ml + Incubation (30° C., 2 hr) + EMA 10 μg/ml, Injured cell",0.094
same,Band Intensity,"[2]; multi-step: EMA 100 μg/ml + Incubation (30° C., 2 hr) + EMA 10 μg/ml, Live cell",1.420
same,Band Intensity,"[2]; multi-step: EMA 100 μg/ml + Incubation (30° C., 2 hr) + EMA 25 μg/ml, Injured cell",0.024
same,Band Intensity,"[2]; multi-step: EMA 100 μg/ml + Incubation (30° C., 2 hr) + EMA 25 μg/ml, Live cell",1.135
same,Band Intensity,[2]; [4],1.539
same,Band Intensity,[2]; [5],1.141
same,Band Intensity,[2]; [6],0.418
same,Band Intensity,[2]; [7],0.479
same,"bands estimated as hlyA gene amplified products (electrophoresis, FIG. 1)",[2]; EMA 10 μg/ml,detected in both the live cells and injured cells
same,"bands estimated as hlyA gene amplified products (electrophoresis, FIG. 1)",[2]; EMA 25 μg/ml,almost disappeared in both the live cells and injured cells
same,"Ct value (mean ± SD, N = 2)",[3]; [4],27.6 ± 0.1
same,number of times of positive reaction in two PCR assays (i/2),[3]; [4],(2/2)
same,"Ct value (mean ± SD, N = 2)",[3]; [5],20.8 ± 0.9
same,"Ct value (mean ± SD, N = 2)",[3]; [6],27.3 ± 1.0
same,number of times of positive reaction in two PCR assays (i/2),[3]; [6],(2/2)
same,"Ct value (mean ± SD, N = 2)",[3]; [7],19.9 ± 1.3
same,"Ct value (mean ± SD, N = 2)",[3]; [8],25.2 ± 0.5
same,number of times of positive reaction in two PCR assays (i/2),[3]; [8],(2/2)
same,"Ct value (mean ± SD, N = 2)",[3]; [9],22.2 ± 1.0
same,"Ct value (mean ± SD, N = 2)",[3]; [11],17.1 ± 1.8
same,"Ct value (mean ± SD, N = 2)",[3]; [13],18.5 ± 2.5
same,"Ct value (mean ± SD, N = 2)",[3]; [14],"27.3, ND^d,e"
same,"Ct value (mean ± SD, N = 2)",[3]; [15],22.9 ± 1.0
